Data as given in patent US20050276834A1, “Mole bait and systems and methods for making and using an improved mole bait” (priority 2004, published 2005).

Test system: moles
Assay: Mole bait article fed to moles, killing of moles
Assay type: in vivo
Details: bromethalin absorbed from a single mole bait article; oral consumption by mole
Experimental: In developing the mole bait article containing gelatin, sorbitol and glycerin according to the above-outlined exemplary embodiment, the applicants screened a large number of elastomers and plasticizers. This screening included determining an appropriate ratio of components by stretching the resultant mole bait article, where the length of the mole bait article was measured before, during and after stretching. This screening also included stretching the mole bait article until the mole bait article broke, thus allowing the tensile strength of the mole bait article to be determined. This screening included providing the mole bait article having the identified formula to moles and observing whether the moles would consume the resultant mole bait article. Finally, this screening included determining whether the mole bait article, when digested by the moles, is sufficiently digestible that a single mole bait article releases an effective amount of the active ingredient into the moles' systems.
In contrast, in various exemplary embodiments of the mole bait article according to this invention, the mole bait article is sufficiently digestible that a single mole bait article according to this invention, upon being consumed and digested, is able to release an effective dose of the active ingredient to the mole. […]

## CN(c1c(Br)cc(Br)cc1Br)c1c([N+](=O)[O-])cc([N+](=O)[O-])cc1C(F)(F)F [Bromethalin]
  dose received from a single mole bait article during its time in the mole's digestive system: lethal dose from a single one of the mole bait articles
